Results as given in publication PMC4499129, “DNA3′pp5′G de-capping activity of aprataxin: effect of cap nucleoside analogs and structural basis for guanosine recognition” (Nucleic Acids Research, 2015).

Experiments:
Aprataxin-(33-232) = biological target: T1, Aprataxin-(33-232) (Schizosaccharomyces pombe, UniProt O74859); test: X-ray crystal structure, […] Å; type: binding; details: co-crystallised with 5 mM GMP, pH 8.0, active site of protomer B
T1 construct: gene hnt3; catalytic domain aa 33-232 (HIT domain + zinc finger), His10Smt3 tag cut by Ulp1, tag-free; E. coli BL21(DE3); two protomers per asymmetric unit
T1 sequence (O74859 33-232): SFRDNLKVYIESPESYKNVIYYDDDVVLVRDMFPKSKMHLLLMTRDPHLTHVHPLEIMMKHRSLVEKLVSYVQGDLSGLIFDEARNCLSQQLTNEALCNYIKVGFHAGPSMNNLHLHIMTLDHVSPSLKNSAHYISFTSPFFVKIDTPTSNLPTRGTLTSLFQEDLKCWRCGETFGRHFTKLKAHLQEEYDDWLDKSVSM

[1] = biological target: T2, aprataxin-(33-232), catalytic domain (HIT + Zn finger) (Schizosaccharomyces pombe, UniProt O74859 33-232); test: X-ray crystallography (2.25 A, P321); Zn2+, guanosine in active site; complementary 3'-PO4 strand … was in the mix but not in the crystal; Crystallization: aprataxin-(33-232) with 5 mM guanosine and 1.2 mM of each 10-mer, mixed with 15% PEG-3350, 0.15 M magnesium acetate; pH and temperature not given in the material; details: protein: recombinant; chain copies: 2; two copies of the same strand; blunt 10-nt duplex, 8/10 mismatches, only terminal G:C pairs canonical
T2 sequence: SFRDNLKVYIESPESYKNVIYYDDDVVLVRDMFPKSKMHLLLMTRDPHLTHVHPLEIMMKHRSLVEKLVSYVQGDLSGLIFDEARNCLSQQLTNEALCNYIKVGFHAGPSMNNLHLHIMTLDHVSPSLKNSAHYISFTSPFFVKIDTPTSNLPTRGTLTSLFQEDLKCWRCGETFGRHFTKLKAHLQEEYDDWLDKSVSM

## Nc1nc2c(ncn2[C@@H]2O[C@H](COP(=O)(O)O)[C@@H](O)[C@H]2O)c(=O)[nH]1 [GMP]
Aprataxin-(33-232); anti conformation
  X-ray crystal structure, 1.5 Å: The refined model included guanosine in the active site of the A protomer and GMP

## Nc1nc2c(ncn2[C@@H]2O[C@H](CO)[C@@H](O)[C@H]2O)c(=O)[nH]1 [guanosine]
Aprataxin-(33-232); anti conformation crystal, grown with 5 mM GMP (no guanosine added), guanosine modelled in active site of protomer A, anti conformatio
  X-ray crystal structure, 1.5 Å: Difference density allowed placement of guanosine in the active site of the A protomer

B1: 10-mer self-paired mismatched duplex HO-GAATCATAAC-OH (dsDNA)
DNA 1: GAATCATAAC
DNA 2: GAATCATAAC
modifications: 5'-OH and 3'-OH ends
[1]
  binding result: binds
